Columns and labels:
[1] = system: MMP-2 and cathepsin B; test: Dual-enzyme (sequential MMP-2 then cathepsin B) activation: fluorescence, singlet oxygen, LC-MS; format: biochemical; settings: for singlet oxygen generation (DPBF decay at 417 nm) after enzyme treatment: DPBF 30 μM, sequential MMP-2 and cathepsin B, irradiation λ > 610 nm, 300 s
Description: To study the dual-enzyme-activated effect, PMB 1 was first treated with MMP-2 (2 μg mL^–1) in PBS for 6 h, followed by the addition of NaOAc, EDTA, and GSH and adjustment of the pH to 5.0 to create a working environment for cathepsin B. This enzyme (1 unit mL^–1) was then added, and the mixture was stirred for a further 19 h. […] The intensity at 25 h was almost the same as that at 24 h, which could be regarded as full activation, arising from the complete separation of the two components. In contrast, the absorption and fluorescence spectra of 14 remained unchanged upon this treatment (Figure S10).
The fluorescence recovery was then determined for 1 under the aforementioned conditions, assuming that the fluorescence intensity of 8 at the same concentration in the same medium was the maximum fluorescence intensity that could be recovered. The results are depicted in Figure 3c. […] In addition, we also determined the corresponding on/off ratios by dividing the fluorescence intensity at 25 h by the initial fluorescence intensity under each of these conditions. […] For 14, the ratios were below 1.5 under all the conditions, showing that the effect of the two enzymes was negligible for this conjugate.
Apart from the activation in fluorescence emission, the activation of 1 in singlet oxygen generation was also studied. PMB 1 (1 μM) was treated with MMP-2 and/or cathepsin B as described above and then mixed with DPBF (30 μM). The absorption spectra of these mixtures were monitored during light irradiation (λ > 610 nm) over a period of 300 s. […] The decrease in absorbance became more substantial for 1 after the treatment with both enzymes. As expected, the changes were negligible for 14 under all conditions (Figure S12).
To study the dual-enzyme-activated effect, PMB 1 was treated with MMP-2 (for 6 h) and cathepsin B (for 19 h) sequentially as mentioned above. […]
where W and Iabs are the DPBF photobleaching rate and the rate of light absorption, […]
MMP-2 and Cathepsin B-Responsive Spectroscopic Studies
Compound 1 or 14 was dissolved in DMF to form a 1 mM stock solution, which was then diluted to 1 μM with PBS at pH 7.4 or buffer solution (pH 5.0, 25 mM NaOAc, 1 mM EDTA, 500 μM GSH), both in the presence of 0.1% Tween 80 (v/v) . For the MMP-2-responsive studies, the solutions in PBS were treated with MMP-2 (2 μg mL-1). For the cathepsin B-responsive studies, the solutions in buffer solution were treated with cathepsin B (1 unit mL-1). For the dual-enzyme-responsive studies, the solutions in PBS were first treated with MMP-2 (2 μg mL-1) for 6 h, followed by the treatment with cathepsin B (1 unit mL-1) after the addition of NaOAc, EDTA, and GSH and adjustment of the pH, turning into the conditions of the buffer solution.
All of the solutions were stirred continuously at 37 °C. The ir electronic absorption and fluorescence spectra were monitored over a period of 25 h.
MMP-2- and Cathepsin B-Responsive Singlet Oxygen Generation Studies […]
halogen lamp after passing through a water tank for cooling and a color glass filter (Newport) cut-on at λ = 610 nm. The decay of DPBF at λ = 417 nm was monitored with a spectrophotometer during the irradiation period. […]
According to the above procedure, 1 and 14 were treated with MMP-2 and cathepsin B. After a period of 25 h, MeOH was added into the solutions for precipitating the enzymes. After filtration, the filtrate was analyzed by LC-MS using the aforementioned conditions. […]

[2] = system: A549 tumor-bearing nude mice; test: In vivo PDT; design: species or system Balb/c nude mice; settings: for H&E staining of major organs, Day 14 / H&E staining of tumor, Day 14 / change in body weight over 14 days: intratumoral 20 nmol + laser 680 nm, 180 J cm-2; for change in body weight over 14 days / tumor size over 14 days: n = 4; for tumor size over 14 days: intratumoral 20 nmol, laser 680 nm, 0.3 W cm-2, 10 min (180 J cm-2) at 6 h post-injection
Description: To further examine the in vivo PDT efficacy of 1, A549 tumor-bearing nude mice were first intratumorally injected with 1 or the non-cleavable control 14 (20 nmol) in 20 μL of distilled water containing 7.5% dimethyl sulfoxide (DMSO) and 0.5% Tween 80 (v/v). After 6 h, when the difference in tumoral fluorescence intensity was the largest between the two conjugates (Figure 7b), the tumor was irradiated with a diode laser at 680 nm (0.3 W cm^–2) for 10 min. As another negative control, another group of mice were injected with PBS only without the laser treatment. The tumor size of all mice was monitored continuously for 14 days after the different treatments.
The body weight of the mice was also monitored during the course of these treatments (Figure 7e). […] In addition, the PDT effect on the tumor and major organs was further investigated by hematoxylin and eosin (H&E) staining.
A549 tumor-bearing nude mice were prepared as described above. The length and width of the tumor were measured using a micrometer digital caliper (SCITOP Systems). The tumor volume (mm3) was calculated using the formula: tumor volume = (length × width2)/2. Once the tumors had grown to a size of 80 –100 mm3, 1 or 14 (20 nmol) dissolved in 20 μL of distilled water containing 7.5% DMSO and 0.5% Tween 80 (v/v) was injected to the tumor -bearing mice through intratu moral injection. At 6 h post-injection, the tumor was illuminated with a diode […]
The tumor size o f the nude mice was monitored periodically for the next 14 days. The tumor volumes were also compared with a PBS control group of mice without the light treatment.
Four mice were used for each group. On Day 14 after the PDT treatment, the mice were sacrificed, and the tumor and major organs were harvested. The tissues were fixed with 4% […]
and embedded in paraffin. […]

SMILES: CCN(CC)c1ccc2nc3ccc(/N=N/c4ccc(N(C)CCCNC(=O)OC[C@@H]5[C@@H]6CCc7nnn(CC(=O)NCCCC[C@@H]8NC(=O)CNC(=O)[C@H](CCCCN)NC(=O)[C@H](CCCNC(=N)N)NC(=O)[C@H](C(C)C)NC(=O)CNC(=O)[C@H](CC(C)C)NC(=O)[C@@H]9CCCN9C(=O)[C@H](CCCCN)NC(=O)[C@@H](N)CSCc9cc(COc%10ccc(C%11=C%12C(C)=C(I)C(/C=C/c%13ccc(OCCOCCOCCOC)cc%13)=[N+]%12[B-](F)(F)n%12c(/C=C/c%13ccc(OCCOCCOCCOC)cc%13)c(I)c(C)c%12%11)cc%10)cc(c9)CSC[C@@H](C(N)=O)NC(=O)[C@H](CCCCN)NC(=O)[C@H](CCCCN)NC(=O)CNC(=O)[C@H](CC(C)C)NC(=O)[C@H](Cc9ccccc9)NC(=O)CNC(=O)[C@H](CCCCN)NC(=O)CNC8=O)c7CC[C@@H]65)cc4)cc3[n+](-c3ccccc3)c2c1 [compound 1]
- singlet oxygen generation (DPBF decay at 417 nm) after enzyme treatment ([1]; 1 μM): turned on remarkably
- on/off ratio (fluorescence intensity at 25 h / initial intensity) ([1]; 1 μM, MMP-2 6 h then cathepsin B 19 h, 37 °C): 16
- fluorescence recovery ([1]; 1 μM, MMP-2 (2 μg mL-1) in PBS 6 h, then cathepsin B (1 unit mL-1) pH 5.0 buffer 19 h, 37 °C, relative to 8): 85%
- LC-MS signal of intact compound after enzyme treatment ([1]; MMP-2 6 h then cathepsin B 19 h, fragments 17 and 18 formed): disappearance of the signal of 1
- H&E staining of major organs, Day 14 [2]: no apparent damage
- H&E staining of tumor, Day 14 [2]: significant cellular damage and necrosis
- change in body weight over 14 days [2]: negligible change
- tumor size over 14 days [2]: greatly reduced

SMILES: CCN(CC)c1ccc2nc3ccc(/N=N/c4ccc(N(C)CCCNC(=O)OC[C@@H]5[C@@H]6CCc7nnn(CC(=O)NCCCC[C@@H]8NC(=O)CNC(=O)[C@H](CCCCN)NC(=O)CNC(=O)CNC(=O)CNC(=O)CNC(=O)CNC(=O)[C@H](CCCCN)NC(=O)[C@@H](N)CSCc9cc(COc%10ccc(C%11=C%12C(C)=C(I)C(/C=C/c%13ccc(OCCOCCOCCOC)cc%13)=[N+]%12[B-](F)(F)n%12c(/C=C/c%13ccc(OCCOCCOCCOC)cc%13)c(I)c(C)c%12%11)cc%10)cc(c9)CSC[C@@H](C(N)=O)NC(=O)[C@H](CCCCN)NC(=O)[C@H](CCCCN)NC(=O)CNC(=O)CNC(=O)CNC(=O)CNC(=O)[C@H](CCCCN)NC(=O)CNC8=O)c7CC[C@@H]65)cc4)cc3[n+](-c3ccccc3)c2c1 [compound 14]
- singlet oxygen generation (DPBF decay at 417 nm) after enzyme treatment ([1]; 1 μM): negligible
- H&E staining of major organs, Day 14 [2]: no apparent damage
- H&E staining of tumor, Day 14 [2]: no apparent damage
- change in body weight over 14 days [2]: negligible change
- tumor size over 14 days [2]: grew continuously
